The record followed here is US20100068698A1, “PRODUCTION OF […] C VIRUS PARTICLES IN CELL CULTURE” (priority 2008, published 2010).

The assay concerns infectious H77S (GT 1a virus). Briefly: HCV infectious virus EC50 determination (HCV RNA by quantitative RT-PCR in infected Rof-0c cells). The class given is cell-based, Hepatitis C virus genotype 1a. The following applies: Hepatitis C virus, GT1A, 72 h, 96-well plate, virus stock grown in human serum, three days post-infection, read-out: potency against infectious H77S (EC50, 50% reduction in HCV RNA). The protocol: FIG. 6. Potency of an NS5B inhibitor and HCV entry inhibitor against the GT 1a infectious virus. Rof-0c cells were infected with either H77S or the chimera H77S RO-51-5B. At the time of infection, the cells were treated with a serial dilution of either the NS5B inhibitor HCV-796 or the HCV entry inhibitor JS81. After three days, the intracellular RNA was purified and used to determine the amount of HCV RNA.
The presence of HCV RNA was examined after purification of total cellular RNA using the PerfectPure RNA 96 Cell Kit (5 Prime) according to the manufacturer's instructions. To quantitate the amount of HCV RNA, cDNA was amplified using either the Taqman Universal PCR mix (Applied Biosystems) or the TaqMan EZ RT-PCR kit (Applied Biosystems) with a set of primers and probe complementary to a region within the 5′ untranslated region (UTR). The primer and probe sequences are: (HCV 20F) […] (SEQ ID NO:4); (HCV 114R) […] (SEQ ID NO:5); (HCV P43) FAM-[…]-TAMRA (SEQ ID NO:6).
The sensitivity of infectious HCV to antivirals was determined using the genotype 1a strains H77S or H77S RO-51-5B. […] Three days post-infection, the HCV RNA was quantified as described above. […]
Potency of HCV inhibitors against GT1a virus. […] The HCV stocks were analyzed to determine if they would be sufficient to measure the potency of HCV inhibitors. […]

Usually EC50 stands for the concentration at which the effect is half-maximal. `CNC(=O)c1c(-c2ccc(F)cc2)oc2cc(N(CCO)S(C)(=O)=O)c(C3CC3)cc12` [HCV-796]: the EC50 came out at 32 ± 4 nM.
